Source: ChEMBL document CHEMBL4811242, “Mechanistic selectivity investigation and 2D-QSAR study of some new antiproliferative pyrazoles and pyrazolopyridines as potential CDK2 inhibitors” (Eur J Med Chem, 2021)

system: not listed separately; assay: Selectivity index, ratio of CC50 for human THLE2 cells to IC50 for human HepG2 cells; type: toxicity; conditions: THLE2 cells and HepG2 cells, read-out: Ratio CC50/IC50

Structure (SMILES) | selectivity ratio
COc1ccc(-c2nc3c(c(-c4ccccc4)nn3-c3ccccc3)c(-c3ccc(N4CCN(C)CC4)cc3)c2C#N)cc1 | 28.2
CN1CCN(c2ccc(-c3c(C#N)c(-c4ccccc4)nc4c3c(-c3ccccc3)nn4-c3ccccc3)cc2)CC1 | 4.8
N#Cc1c(-c2ccc(Cl)cc2)nc2c(c(-c3ccccc3)nn2-c2ccccc2)c1-c1ccc(N2CCCCC2)cc1 | 3.89

system: HepG2; assay: Induction of apoptosis in human HepG2 cells assessed as caspase-3 concentration at IC50 by ELISA (reference value: 0.03822 +/- 0.0029 ng/ml); type: functional; conditions: not given

Structure (SMILES) | Activity [ng/mL]
COc1ccc(-c2nc3c(c(-c4ccccc4)nn3-c3ccccc3)c(-c3ccc(N4CCN(C)CC4)cc3)c2C#N)cc1 | 0.3714

target: Cyclin-dependent kinase 1/cyclin B1 (Homo sapiens, UniProt P06493); assay: Inhibition of CDK1/cyclin B (unknown origin); type: protein-complex assay; conditions: not given
Sequence (P06493 whole entry): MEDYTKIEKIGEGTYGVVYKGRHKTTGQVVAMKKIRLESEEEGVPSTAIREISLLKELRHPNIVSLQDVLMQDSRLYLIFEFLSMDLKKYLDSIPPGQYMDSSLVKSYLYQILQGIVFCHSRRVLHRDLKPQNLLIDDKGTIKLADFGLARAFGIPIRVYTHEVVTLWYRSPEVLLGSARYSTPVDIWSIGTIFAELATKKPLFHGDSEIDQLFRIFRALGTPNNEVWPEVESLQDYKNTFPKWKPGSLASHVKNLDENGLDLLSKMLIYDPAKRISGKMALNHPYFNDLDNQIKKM
Sequence (P14635 whole entry, further chain): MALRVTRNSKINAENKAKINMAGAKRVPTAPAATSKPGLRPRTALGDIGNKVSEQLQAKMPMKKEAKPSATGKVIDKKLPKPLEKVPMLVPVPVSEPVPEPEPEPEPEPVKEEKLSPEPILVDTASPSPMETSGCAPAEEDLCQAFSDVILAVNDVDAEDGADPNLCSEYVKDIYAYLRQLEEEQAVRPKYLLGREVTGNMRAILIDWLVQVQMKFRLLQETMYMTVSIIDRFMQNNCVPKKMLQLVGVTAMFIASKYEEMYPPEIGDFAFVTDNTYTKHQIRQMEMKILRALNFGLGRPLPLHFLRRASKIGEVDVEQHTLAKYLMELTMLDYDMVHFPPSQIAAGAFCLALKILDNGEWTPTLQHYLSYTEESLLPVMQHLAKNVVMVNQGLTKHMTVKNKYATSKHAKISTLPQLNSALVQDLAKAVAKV

Structure (SMILES) | IC50 [nM] | Ki [nM]
COc1ccc(-c2nc3c(c(-c4ccccc4)nn3-c3ccccc3)c(-c3ccc(N4CCN(C)CC4)cc3)c2C#N)cc1 | 209 | 127

system: HepG2; assay: Induction of apoptosis in human HepG2 cells assessed as late apoptotic cells at IC50 after 48 hrs by Annexin V-FITC/propidium iodide staining based flow cytometric analysis (reference value: 0.18 %); type: functional; conditions: not given

Structure (SMILES) | Activity [%]
COc1ccc(-c2nc3c(c(-c4ccccc4)nn3-c3ccccc3)c(-c3ccc(N4CCN(C)CC4)cc3)c2C#N)cc1 | 11.17

system: HepG2; assay: Induction of apoptosis in human HepG2 cells assessed as early apoptotic cells at IC50 after 48 hrs by Annexin V-FITC/propidium iodide staining based flow cytometric analysis (reference value: 0.38 %); type: functional; conditions: not given

Structure (SMILES) | Activity [%]
COc1ccc(-c2nc3c(c(-c4ccccc4)nn3-c3ccccc3)c(-c3ccc(N4CCN(C)CC4)cc3)c2C#N)cc1 | 6.07

system: not listed separately; assay: Cytotoxicity against human THLE2 cells assessed as reduction in cell viability by MTT assay; type: cell-based, THLE-2; conditions: not given

Structure (SMILES) | CC50 [nM]
COc1cccc2c1C(=O)c1c(O)c3c(c(O)c1C2=O)C[C@@](O)(C(=O)CO)C[C@@H]3O[C@H]1C[C@H](N)[C@H](O)[C@H](C)O1 [DOXORUBICIN] | 12700
COc1ccc(-c2nc3c(c(-c4ccccc4)nn3-c3ccccc3)c(-c3ccc(N4CCN(C)CC4)cc3)c2C#N)cc1 | 37500
CN1CCN(c2ccc(-c3c(C#N)c(-c4ccccc4)nc4c3c(-c3ccccc3)nn4-c3ccccc3)cc2)CC1 | 15100
N#Cc1c(-c2ccc(Cl)cc2)nc2c(c(-c3ccccc3)nn2-c2ccccc2)c1-c1ccc(N2CCCCC2)cc1 | 12500

system: HepG2; assay: Cytotoxicity against human HepG2 cells; conditions: not given

Structure (SMILES) | IC50 [nM]
CC(C)c1cnn2c(NCc3ccccc3)cc(N[C@@H](CO)[C@H](O)CO)nc12 | 1000

target: Cyclin-dependent kinase 7/ cyclin H (Homo sapiens, UniProt P50613); assay: Inhibition of CDK7/cyclin H (unknown origin); type: protein-complex assay; conditions: not given
Sequence (P51946 whole entry): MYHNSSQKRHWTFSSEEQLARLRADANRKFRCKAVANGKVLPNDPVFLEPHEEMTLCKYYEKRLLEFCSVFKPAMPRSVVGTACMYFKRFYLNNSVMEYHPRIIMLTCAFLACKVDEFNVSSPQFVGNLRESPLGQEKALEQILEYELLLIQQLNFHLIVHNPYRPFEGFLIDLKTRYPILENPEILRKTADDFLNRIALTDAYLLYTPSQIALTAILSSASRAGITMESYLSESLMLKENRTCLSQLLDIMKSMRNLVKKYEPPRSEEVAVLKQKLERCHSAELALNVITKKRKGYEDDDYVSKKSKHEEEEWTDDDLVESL
Sequence (P50613 whole entry): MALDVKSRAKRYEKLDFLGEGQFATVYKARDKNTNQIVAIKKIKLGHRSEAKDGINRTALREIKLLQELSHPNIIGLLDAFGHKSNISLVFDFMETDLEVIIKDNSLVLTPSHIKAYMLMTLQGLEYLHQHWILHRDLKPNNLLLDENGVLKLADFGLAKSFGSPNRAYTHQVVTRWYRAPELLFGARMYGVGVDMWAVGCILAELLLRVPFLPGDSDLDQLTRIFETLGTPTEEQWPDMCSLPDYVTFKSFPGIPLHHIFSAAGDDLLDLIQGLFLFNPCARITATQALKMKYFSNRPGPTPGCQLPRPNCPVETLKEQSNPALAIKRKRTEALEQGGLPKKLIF

Structure (SMILES) | IC50 [nM] | Ki [nM]
COc1ccc(-c2nc3c(c(-c4ccccc4)nn3-c3ccccc3)c(-c3ccc(N4CCN(C)CC4)cc3)c2C#N)cc1 | 225 | 144

system: MCF7; assay: Antiproliferative activity against human MCF7 cells assessed as inhibition of cell growth after 48 hrs by MTT assay; type: functional, cell-based; conditions: MCF7, 48 h

Structure (SMILES) | IC50 [nM]
COc1cccc2c1C(=O)c1c(O)c3c(c(O)c1C2=O)C[C@@](O)(C(=O)CO)C[C@@H]3O[C@H]1C[C@H](N)[C@H](O)[C@H](C)O1 [DOXORUBICIN] | 1880
N#Cc1c(-c2ccccc2)nc2c(c(-c3ccccc3)nn2-c2ccccc2)c1-c1ccc(N2CCOCC2)cc1 | 3340
COc1ccc(-c2nc3c(c(-c4ccccc4)nn3-c3ccccc3)c(-c3ccc(N4CCN(C)CC4)cc3)c2C#N)cc1 | 2650
CN1CCN(c2ccc(-c3c(C#N)c(-c4ccccc4)nc4c3c(-c3ccccc3)nn4-c3ccccc3)cc2)CC1 | 14300
N#Cc1c(-c2ccc(Cl)cc2)nc2c(c(-c3ccccc3)nn2-c2ccccc2)c1-c1ccc(N2CCCCC2)cc1 | 10600

system: not listed separately; assay: Cytotoxicity against human MCF10A cells assessed as reduction in cell viability by MTT assay; type: cell-based, MCF-10A; conditions: not given

Structure (SMILES) | CC50 [nM]
COc1cccc2c1C(=O)c1c(O)c3c(c(O)c1C2=O)C[C@@](O)(C(=O)CO)C[C@@H]3O[C@H]1C[C@H](N)[C@H](O)[C@H](C)O1 [DOXORUBICIN] | 13900

system: HepG2; assay: Induction of apoptosis in human HepG2 cells assessed as fold increase in caspase-3 activation at IC50 by ELISA; type: functional; conditions: not given

Structure (SMILES) | fold change (FC)
COc1ccc(-c2nc3c(c(-c4ccccc4)nn3-c3ccccc3)c(-c3ccc(N4CCN(C)CC4)cc3)c2C#N)cc1 | 10

system: MCF7; assay: Cytotoxicity against human MCF7 cells; conditions: not given

Structure (SMILES) | IC50 [nM]
CC(C)c1cnn2c(NCc3ccccc3)cc(N[C@@H](CO)[C@H](O)CO)nc12 | 300

system: HepG2; assay: Antiproliferative activity against human HepG2 cells assessed as inhibition of cell growth after 48 hrs by MTT assay; type: functional, cell-based; conditions: HepG2, 48 h

Structure (SMILES) | IC50 [nM]
COc1cccc2c1C(=O)c1c(O)c3c(c(O)c1C2=O)C[C@@](O)(C(=O)CO)C[C@@H]3O[C@H]1C[C@H](N)[C@H](O)[C@H](C)O1 [DOXORUBICIN] | 7300
N#Cc1c(-c2ccccc2)nc2c(c(-c3ccccc3)nn2-c2ccccc2)c1-c1ccc(N2CCOCC2)cc1 | 10500
COc1ccc(-c2nc3c(c(-c4ccccc4)nn3-c3ccccc3)c(-c3ccc(N4CCN(C)CC4)cc3)c2C#N)cc1 | 1330
CN1CCN(c2ccc(-c3c(C#N)c(-c4ccccc4)nc4c3c(-c3ccccc3)nn4-c3ccccc3)cc2)CC1 | 3140
N#Cc1c(-c2ccc(Cl)cc2)nc2c(c(-c3ccccc3)nn2-c2ccccc2)c1-c1ccc(N2CCCCC2)cc1 | 3210

system: HepG2; assay: Induction of cell cycle arrest in human HepG2 cells assessed as accumulation at G0/G1 phase at IC50 after 48 hrs by propidium iodide staining based Flow cytometric analysis (reference value: 47.29%); type: functional; conditions: not given

Structure (SMILES) | Activity [%]
COc1ccc(-c2nc3c(c(-c4ccccc4)nn3-c3ccccc3)c(-c3ccc(N4CCN(C)CC4)cc3)c2C#N)cc1 | 48.02

system: HepG2; assay: Induction of cell cycle arrest in human HepG2 cells assessed as accumulation at G2/M phase at IC50 after 48 hrs by propidium iodide staining based Flow cytometric analysis (reference value: 7.34%); type: functional; conditions: not given

Structure (SMILES) | Activity [%]
COc1ccc(-c2nc3c(c(-c4ccccc4)nn3-c3ccccc3)c(-c3ccc(N4CCN(C)CC4)cc3)c2C#N)cc1 | 3.62

target: Cyclin-dependent kinase 4/cyclin D1 (Homo sapiens, UniProt P11802); assay: Inhibition of CDK4/cyclin D1 (unknown origin); type: protein-complex assay; conditions: not given
Sequence (P11802 whole entry): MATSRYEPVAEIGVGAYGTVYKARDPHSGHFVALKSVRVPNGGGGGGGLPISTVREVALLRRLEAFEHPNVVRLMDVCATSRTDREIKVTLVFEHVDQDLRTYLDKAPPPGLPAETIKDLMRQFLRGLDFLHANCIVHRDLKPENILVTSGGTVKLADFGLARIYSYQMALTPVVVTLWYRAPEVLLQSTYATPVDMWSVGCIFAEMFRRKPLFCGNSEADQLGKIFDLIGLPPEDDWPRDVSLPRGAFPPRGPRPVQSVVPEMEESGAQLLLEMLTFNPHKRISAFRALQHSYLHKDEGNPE
Sequence (P24385 whole entry, further chain): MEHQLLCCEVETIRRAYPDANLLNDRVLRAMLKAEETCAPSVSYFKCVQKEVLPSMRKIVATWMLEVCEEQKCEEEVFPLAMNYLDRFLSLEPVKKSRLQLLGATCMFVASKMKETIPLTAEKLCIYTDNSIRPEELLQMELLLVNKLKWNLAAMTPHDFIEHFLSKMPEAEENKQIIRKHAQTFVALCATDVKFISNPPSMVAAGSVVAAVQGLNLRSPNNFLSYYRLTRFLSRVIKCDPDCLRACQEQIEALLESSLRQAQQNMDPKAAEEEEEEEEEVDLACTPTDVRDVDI

Structure (SMILES) | IC50 [nM] | Ki [nM]
COc1ccc(-c2nc3c(c(-c4ccccc4)nn3-c3ccccc3)c(-c3ccc(N4CCN(C)CC4)cc3)c2C#N)cc1 | 104000 | 56900

system: HepG2; assay: Induction of cell cycle arrest in human HepG2 cells assessed as accumulation at S phase at IC50 after 48 hrs by propidium iodide staining based Flow cytometric analysis (reference value: 45.37%); type: functional; conditions: not given

Structure (SMILES) | Activity [%]
COc1ccc(-c2nc3c(c(-c4ccccc4)nn3-c3ccccc3)c(-c3ccc(N4CCN(C)CC4)cc3)c2C#N)cc1 | 48.36

system: HepG2; assay: Induction of cell cycle arrest in human HepG2 cells assessed as accumulation at pre-G1 phase at IC50 after 48 hrs by propidium iodide staining based Flow cytometric analysis (reference value: 1.52%); type: functional; conditions: not given

Structure (SMILES) | Activity [%]
COc1ccc(-c2nc3c(c(-c4ccccc4)nn3-c3ccccc3)c(-c3ccc(N4CCN(C)CC4)cc3)c2C#N)cc1 | 22.15

target: CDK2/Cyclin A2 (Homo sapiens, UniProt P24941); assay: Inhibition of CDK2/Cyclin A2 (unknown origin) after 10 mins by ADP-Glo reagent based assay; type: protein-complex assay; conditions: not given

Structure (SMILES) | IC50 [nM] | Ki [nM]
N#Cc1c(-c2ccccc2)nc2c(c(-c3ccccc3)nn2-c2ccccc2)c1-c1ccc(N2CCOCC2)cc1 | 96 | 
COc1ccc(-c2nc3c(c(-c4ccccc4)nn3-c3ccccc3)c(-c3ccc(N4CCN(C)CC4)cc3)c2C#N)cc1 | 66.5 | 40
CN1CCN(c2ccc(-c3c(C#N)c(-c4ccccc4)nc4c3c(-c3ccccc3)nn4-c3ccccc3)cc2)CC1 | 161 | 
N#Cc1c(-c2ccc(Cl)cc2)nc2c(c(-c3ccccc3)nn2-c2ccccc2)c1-c1ccc(N2CCCCC2)cc1 | 195 | 

system: HepG2; assay: Induction of apoptosis in human HepG2 cells assessed as total apoptotic cells at IC50 after 48 hrs by Annexin V-FITC/propidium iodide staining based flow cytometric analysis (reference value: 1.52 %); type: functional; conditions: not given

Structure (SMILES) | Activity [%]
COc1ccc(-c2nc3c(c(-c4ccccc4)nn3-c3ccccc3)c(-c3ccc(N4CCN(C)CC4)cc3)c2C#N)cc1 | 22.2
